Data on eleven compounds can be found in patent publication US10202360B2 (CELGENE QUANTICEL RESEARCH, INC., priority 2016, dated 2019).

This assay concerns the target CREBBP (Homo sapiens (Human), UniProt Q92793). The assay is described as follows: In vitro enzyme inhibition assay - CREBBP inhibition (AlphaScreen, biotinylated H4-tetraacetyl peptide). Particulars: Table 28; AlphaScreen, H4-tetraacetyl peptide. Type of assay: binding. In a few lines: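 Displacement of 20 nM biotinylated tetraacetyl-H4 peptide from 50 nM E. coli-expressed His-CREBBP, measured by AlphaScreen after bead equilibration for 2 h.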

CREBBP, sequence (Q92793 1081-1197): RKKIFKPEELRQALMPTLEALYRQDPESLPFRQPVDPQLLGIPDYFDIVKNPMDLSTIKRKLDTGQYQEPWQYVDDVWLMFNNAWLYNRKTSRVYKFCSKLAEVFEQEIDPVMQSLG

Regarding `CCS(=O)(=O)Nc1nc(Oc2c(C)cccc2C)nc(-c2cc(C)c(=O)n(C)c2)c1C` [Example 160, Ethanesulfonic acid [6-(1,5-dimethyl-6-oxo-1,6-dihydro-pyridin-3-yl)-2-(2,6-dimethyl-phenoxy)-5-methyl-pyrimidin-4-yl]-amide], the concentration for half-maximal inhibition (IC50) was < 500 nM.
`CCCS(=O)(=O)Nc1nc(Oc2c(C)cccc2F)nc(-c2cc(C)c(=O)n(C)c2)c1C` [Example 161, Propane-1-sulfonic acid [6-(1,5-dimethyl-6-oxo-1,6-dihydro-pyridin-3-yl)-2-(2-fluoro-6-methyl-phenoxy)-5-methyl-pyrimidin-4-yl]-amide]: the IC50 was < 500 nM.
The same measure for `Cc1cccc(F)c1Oc1nc(NS(=O)(=O)C(C)C)c(C)c(-c2cc(C)c(=O)n(C)c2)n1` [Example 162, Propane-2-sulfonic acid [6-(1,5-dimethyl-6-oxo-1,6-dihydro-pyridin-3-yl)-2-(2-fluoro-6-methyl-phenoxy)-5-methyl-pyrimidin-4-yl]-amide]: < 500 nM; for `Cc1cccc(C)c1Oc1nc(NS(=O)(=O)C(C)C)c(C)c(-c2cc(C)c(=O)n(C)c2)n1` [Example 163, Propane-2-sulfonic acid [6-(1,5-dimethyl-6-oxo-1,6-dihydro-pyridin-3-yl)-2-(2,6-dimethyl-phenoxy)-5-methyl-pyrimidin-4-yl]-amide]: < 500 nM; for `CCCS(=O)(=O)Nc1nc(Oc2c(C)cccc2C)nc(-c2cc(C)c(=O)n(C)c2)c1C` [Example 164, Propane-1-sulfonic acid [6-(1,5-dimethyl-6-oxo-1,6-dihydro-pyridin-3-yl)-2-(2,6-dimethyl-phenoxy)-5-methyl-pyrimidin-4-yl]-amide]: < 500 nM.
Next, `Cc1c(NS(=O)(=O)C(C)C)nc(Oc2ccc(F)cc2F)nc1-c1cc(C)c(=O)n(C)c1` [Example 165, Propane-2-sulfonic acid [2-(2,4-difluoro-phenoxy)-6-(1,5-dimethyl-6-oxo-1,6-dihydro-pyridin-3-yl)-5-methyl-pyrimidin-4-yl]-amide]: < 500 nM.
Regarding `CCC(F)(F)S(=O)(=O)Nc1cc(-c2ccc(=O)n(C)c2)nc(Oc2c(C)cccc2F)n1` [Example 166, 1,1-Difluoro-propane-1-sulfonic acid [2-(2-fluoro-6-methyl-phenoxy)-6-(1-methyl-6-oxo-1,6-dihydro-pyridin-3-yl)-pyrimidin-4-yl]-amide], the concentration for half-maximal inhibition (IC50) was < 500 nM.
Turning to `CCC(F)(F)S(=O)(=O)Nc1cc(-c2cc(C)c(=O)n(C)c2)nc(Oc2c(C)cccc2F)n1` [Example 167, 1,1-Difluoro-propane-1-sulfonic acid [6-(1,5-dimethyl-6-oxo-1,6-dihydro-pyridin-3-yl)-2-(2-fluoro-6-methyl-phenoxy)-pyrimidin-4-yl]-amide], the IC50 is < 500 nM.
In the case of `CCC(F)S(=O)(=O)Nc1cc(-c2ccc(=O)n(C)c2)nc(Oc2c(C)cccc2F)n1` (centres unmarked) [Example 168, 1-Fluoro-propane-1-sulfonic acid [2-(2-fluoro-6-methyl-phenoxy)-6-(1-methyl-6-oxo-1,6-dihydro-pyridin-3-yl)-pyrimidin-4-yl]-amide], the IC50 was < 500 nM.
Next, `CCC(F)S(=O)(=O)Nc1cc(-c2cc(C)c(=O)n(C)c2)nc(Oc2c(C)cccc2F)n1` (centres unmarked) [Example 169, 1-Fluoro-propane-1-sulfonic acid [6-(1,5-dimethyl-6-oxo-1,6-dihydro-pyridin-3-yl)-2-(2-fluoro-6-methyl-phenoxy)-pyrimidin-4-yl]-amide]: < 500 nM; `CCC(F)(F)S(=O)(=O)Nc1cc(-c2ccc(=O)n(C)c2)nc(Oc2c(C)cccc2Cl)n1` [Example 170, 1,1-Difluoro-propane-1-sulfonic acid [2-(2-chloro-6-methyl-phenoxy)-6-(1-methyl-6-oxo-1,6-dihydro-pyridin-3-yl)-pyrimidin-4-yl]-amide]: < 500 nM.
